# Test results reported in patent US12264173B2 (GILEAD SCIENCES, INC., priority 2020, dated 2025).
# Like-named read-outs stand apart in the source and are kept apart here.
# What was measured:
# Assay type in all cases: cell-based
# RSV strain A2 = experiment: microbe, parasite or virus in culture; details: read-out: RSV HEp-2 EC50
# Outline: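 Cytopathic-effect protection assay: HEp-2 cells (50,000/mL) infected with pre-titered RSV A2 onto 3-fold serial compound dilutions, incubated 4 days at 37° C. Cell viability read by CellTiter-Glo luminescence; percent inhibition derived against 0% and 100% virus-inhibition controls.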
# HRV16 = HRV16 HeLa EC50 (cytopathic effect in H1-HeLa cells); details: read-out: HRV16 HeLa EC50
# Outline: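 H1-HeLa cells seeded one day before, given 3-fold serial compound dilutions in triplicate just prior to infection with pre-titrated virus. Incubated 96 h at 33 °C/5% CO2; protection from cytopathic effect read as viability by CellTiter-Glo luminescence, normalised to infected untreated (0%) and uninfected (100%) controls.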
# RSV A2 = experiment: RSV NHBE EC50 (RSV A2 antiviral assay in NHBE cells); details: read-out: RSV NHBE EC50
# Outline: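 Primary bronchial epithelial cells attach overnight, receive 3-fold serial compound dilutions, and are infected with RSV A2 at 1×10^4.5 tissue culture infectious doses/mL. Protection from virus-induced cell death is scored by luminescent viability assay after 4 days.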
# DENV2 replicon = experiment: DENV-2 Huh-7 Rep EC50 (replicon luminescence)
# Outline: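 Huh-7 cells carrying a DENV2 replicon, 5,000 cells/well, were incubated with dosed compounds for 48 h at 37° C. EnduRen live-cell substrate was added 1.5 h before luminescence reading. EC50 came from dose-response against DMSO-only wells.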
# [1] = Table 3, HEp-2 cells, RSV A2, 4 days
# [2] = Table 3, NHBE cells, RSV A2, 4 days
# [3] = Table 3, Huh-7 DENV2 replicon cells, 48 hours, read-out: DENV-2 REP Huh7 EC50
# [4] = human respiratory syncytial virus, HEp-2, 96 h, Table 3, HEp-2 cells, RSV A2, 4 days
# [5] = 96 h, Table 3, H1-HeLa cells, 96 h
# [6] = human respiratory syncytial virus, NHBE, 96 h, Table 3, NHBE cells, RSV A2, 4 days
# [7] = Dengue virus, DENV2, Huh-7, 48 h, read-out: DENV-2 REP Huh7 EC50
# [8] = Dengue virus, DENV2, Huh-7, 48 h, read-out: DENV-2 REP Huh7 EC50, Table 3, Huh-7 DENV2 replicon cells, 48 hours
SMILES,EC50 (RSV strain A2; [1]),"EC50 (HRV16; Table 3, H1-HeLa cells, 96 h)",EC50 (RSV A2; [2]),EC50 (DENV2 replicon; [3]),EC50 (RSV strain A2; [4]),EC50 (HRV16; [5]),EC50 (RSV A2; [6]),EC50 (DENV2 replicon; [7]),EC50 (DENV2 replicon; [8]),"EC50 (RSV strain A2; human respiratory syncytial virus, HEp-2, Table 5 comparative activity, 2',3'-OH vs -OC(O)iPr)","EC50 (HRV16; HeLa, Table 5 comparative activity, 2',3'-OH vs -OC(O)iPr)","EC50 (RSV A2; human respiratory syncytial virus, NHBE, Table 5 comparative activity, 2',3'-OH vs -OC(O)iPr)"
"CC(C)OC(=O)C(C)NP(=O)(OCC1(C#N)OC(c2ccc3c(N)ncnn23)C(OC(=O)C(C)C)C1OC(=O)C(C)C)Oc1ccc(C(=O)N(C)C)cc1 (single isomer, unassigned) [Example 179]",0.161 µM,0.731 µM,0.1 µM,29.4 µM,–,–,–,–,–,–,–,–
"CCOC(=O)[C@H](C)N[P@](=O)(OC[C@@]1(C#N)O[C@@H](c2ccc3c(N)ncnn23)[C@H](OC(=O)CC)[C@@H]1OC(=O)CC)Oc1ccccc1 [Example 105, (2R,3S,4S,5S)-5-(4-Aminopyrrolo[2,1-f][1,2,4]triazin-7-yl)-2-cyano-2-((((S)-(((S)-1-ethoxy-1-oxopropan-2-yl)amino)(phenoxy)phosphoryl)oxy)methyl) tetrahydrofuran-3,4-diyl dipropionate]",–,–,–,–,0.057 µM,0.182 µM,0.013 µM,12.9 µM,–,–,–,–
"CC(C)[C@@H](N)C(=O)O[C@H]1[C@H](c2ccc3c(N)ncnn23)O[C@](C#N)(CO[P@@](=O)(N[C@@H](C)C(=O)OC2CCCCC2)Oc2ccccc2)[C@H]1OC(=O)[C@H](N)C(C)C [Example 153, (2R,3S,4S,5S)-5-(4-aminopyrrolo[2,1-f][1,2,4]triazin-7-yl)-2-cyano-2-((((S)-(((S)-1-(cyclohexyloxy)-1-oxopropan-2-yl)amino)(phenoxy)phosphoryl)oxy)methyl)tetrahydrofuran-3,4-diyl (2R,2′R)-bis(2-amino-3-methylbutanoate)]",–,–,–,–,0.11 µM,0.47 µM,0.283 µM,6.68 µM,–,–,–,–
"CCC(=O)O[C@H]1[C@H](c2ccc3c(N)ncnn23)O[C@](C#N)(COP(=O)(N[C@@H](C)C(=O)OC2CCN(CC)CC2(F)F)Oc2ccccc2)[C@H]1OC(=O)CC (stereo partly drawn) [Example 135, (2R,3S,4S,5S)-5-(4-Aminopyrrolo[2,1-f][1,2,4]triazin-7-yl)-2-cyano-2-((((((2S)-1-((1-ethyl-3,3-difluoropiperidin-4-yl)oxy)-1-oxopropan-2-yl)amino)(phenoxy)phosphoryl)oxy)methyl)tetrahydrofuran-3,4-diyl dipropionate]",–,–,–,–,0.738 µM,1.08 µM,0.033 µM,30.6 µM,–,–,–,–
"CCC(=O)OC1[C@H](c2ccc3c(N)ncnn23)O[C@](C#N)(COP(=O)(N[C@@H](C)C(=O)OCC2CCOCC2)Oc2ccccc2)[C@H]1OC(=O)CC (stereo in doubt) [Example 107, (2R,3S,4R,5S)-5-(4-aminopyrrolo[2,1-f][1,2,4]triazin-7-yl)-2-cyano-2-((((((S)-1-oxo-1-((tetrahydro-2H-pyran-4-yl)methoxy)propan-2-yl)amino)(phenoxy)phosphoryl)oxy)methyl)tetrahydrofuran-3,4-diyl dipropionate]",–,–,–,–,0.098 µM,0.388 µM,0.031 µM,22.4 µM,–,–,–,–
CCC(=O)OC1C(c2ccc3c(N)ncnn23)OC(C#N)(COP(=O)(NC(C)C(=O)OCC2CCC2)Oc2ccccc2)C1OC(=O)CC (centres unmarked) [Example 92],0.041 µM,0.104 µM,0.033 µM,13.6 µM,–,–,–,–,–,–,–,–
"COCCOP(=O)(N[C@@H](C)C(=O)OC(C)C)OC[C@@]1(C#N)O[C@@H](c2ccc3c(N)ncnn23)[C@H](OC(=O)C(C)C)[C@@H]1OC(=O)C(C)C (stereo partly drawn) [Example 214, (2R,3S,4S,5S)-5-(4-aminopyrrolo[2,1-f][1,2,4]triazin-7-yl)-2-cyano-2-((((((S)-1-isopropoxy-1-oxopropan-2-yl)amino)(2-methoxyethoxy)phosphoryl)oxy)methyl) tetrahydrofuran-3,4-diyl bis(2-methylpropanoate)]",–,–,–,–,> 41.7 µM,31.3 µM,> 3.89 µM,–,> 50 µM,–,–,–
"CCOC(=O)[C@H](C)NP(=O)(N[C@@H](C)C(=O)OCC)OC[C@@]1(C#N)O[C@@H](c2ccc3c(N)ncnn23)[C@H](OC(=O)C(C)C)[C@@H]1OC(=O)C(C)C [Example 137, ((2R,3S,4R,5S)-5-(4-aminopyrrolo[2,1-f][1,2,4]triazin-7-yl)-2-cyano-3,4-diisobutylatetetrahydrofuran-2-yl)methyl bis-ethyl L-alaninate phosphate]",–,–,–,–,0.467 µM,1.04 µM,0.065 µM,–,38.4 µM,0.467 µM,1.04 µM,0.065 µM
"CCC(=O)O[C@H]1[C@H](c2ccc3c(N)ncnn23)O[C@](C#N)(COP(=O)(N[C@@H](C)C(=O)OC)Oc2ccccc2)[C@H]1OC(=O)CC (stereo partly drawn) [Example 141, (2R,3S,4S,5S)-5-(4-aminopyrrolo[2,1-f][1,2,4]triazin-7-yl)-2-cyano-2-((((((S)-1-methoxy-1-oxopropan-2-yl)amino)(phenoxy)phosphoryl)oxy)methyl)tetrahydrofuran-3,4-diyl dipropionate]",–,–,–,–,0.08 µM,0.253 µM,0.023 µM,7.49 µM,–,–,–,–
"CC(C)OC(=O)[C@H](C)N[P@](=O)(OC[C@@]1(C#N)O[C@@H](c2ccc3c(N)ncnn23)[C@H](OC(=O)[C@@H](N)C(C)C)[C@@H]1OC(=O)[C@@H](N)C(C)C)Oc1ccccc1 [Example 157, (2R,3S,4S,5S)-5-(4-aminopyrrolo[2,1-f][1,2,4]triazin-7-yl)-2-cyano-2-((((S)-(((S)-1-isopropoxy-1-oxopropan-2-yl)amino)(phenoxy)phosphoryl)oxy)methyl)tetrahydrofuran-3,4-diyl (2S,2'S)-bis(2-amino-3-methylbutanoate)]",–,–,–,–,0.227 µM,1.79 µM,1.59 µM,25.8 µM,–,–,–,–
"CCOC(=O)[C@H](C)N[P@](=O)(OC[C@@]1(C#N)O[C@@H](c2ccc3c(N)ncnn23)[C@H](OC(C)=O)[C@@H]1OC(C)=O)Oc1ccccc1 [Example 104, (2R,3S,4S,5S)-5-(4-aminopyrrolo[2,1-f][1,2,4]triazin-7-yl)-2-cyano-2-((((S)-(((S)-1-ethoxy-1-oxopropan-2-yl)amino)(phenoxy)phosphoryl)oxy)methyl) tetrahydrofuran-3,4-diyl diacetate]",–,–,–,–,0.147 µM,0.703 µM,0.032 µM,29.1 µM,–,–,–,–
CCC(=O)O[C@H]1[C@H](c2ccc3c(N)ncnn23)O[C@](C#N)(CO[P@](=O)(N[C@@H](C)C(=O)OCC2CCN(CC(F)(F)F)CC2)Oc2ccccc2)[C@H]1OC(=O)CC [Example 117],0.113 µM,0.462 µM,0.02 µM,19.1 µM,–,–,–,–,–,–,–,–
CC(=O)O[C@H]1[C@H](c2ccc3c(N)ncnn23)O[C@](C#N)(CO[P@@](=O)(N[C@@H](C)C(=O)OCC2CCC2)Oc2ccccc2)[C@H]1OC(C)=O [Example 95],0.09 µM,0.429 µM,0.02 µM,19.8 µM,–,–,–,–,–,–,–,–
"CC(=O)O[C@H]1[C@H](c2ccc3c(N)ncnn23)O[C@](C#N)(COP(=O)(N[C@@H](C)C(=O)OC2CCCCC2)N[C@@H](C)C(=O)OC2CCCCC2)[C@H]1OC(C)=O [Example 121, (2R,3S,4S,5S)-5-(4-Aminopyrrolo[2,1-f][1,2,4]triazin-7-yl)-2-cyano-2-((((((S)-1-(cyclohexyloxy)-1-oxopropan-2-yl)amino)(((S)-1-cyclohexyloxy-1-oxopropan-2-yl)amino)phosphoryl)oxy)methyl)tetrahydrofuran-3,4-diyl diacetate]",–,–,–,–,5.45 µM,6.66 µM,0.498 µM,–,44.4 µM,–,–,–
